Results on 5 molecules are retold here after paper PMC7812938, “Dehydrobufotenin extracted from the Amazonian toad Rhinella marina (Anura: Bufonidae) as a prototype molecule for the development of antiplasmodial drugs” (The Journal of Venomous Animals and Toxins Including …, 2021).

Structures are written as SMILES. Read-outs that look alike come from different tables or passages of the source. Where only a bound is given, the exact number is not on record here.

The subject of series [1] is WI-26VA4 human pulmonary fibroblast cells. The experiment in a line: In vitro cytotoxicity, MTT assay. Type of series: cell-based. As to conditions: for SI (selectivity index): SI = LD50 Cell / IC50 P. falciparum, WI-26VA4 vs W2; for LD50 ± SD (lethal drug concentration that reduced WI-26VA4 cells viability in 50%): WI-26VA4 human pulmonary fibroblast cells, MTT, 24 hours, mean and SD of triplicate experiments. The procedure:
The cells were washed with culture medium, trypsinized, distributed in a flat-bottomed 96-well plate (5×10^3 cells/well), and incubated for 18 hours at 37 °C for cell adherence. The compounds (20 μL) were diluted in different concentrations ranging from 0.2 - 200 μg/mL and incubated with the cells for 24 hours in a 5% CO2 atmosphere at 37 °C.
A 3-(4,5-dimethylthiazol-2-yl)-2,5-diphenyltetrazolium bromide (MTT) solution (5 mg/mL; 20 μL/well) was added to evaluate mitochondrial viability; after a further 3 hours incubation, the supernatants were carefully removed, 100 μL of DMSO was added to each well, and the reactions were mixed to solubilize the formazan crystals. […] The cell viability was expressed as a percentage of the control absorbance in the untreated cells after subtracting the appropriate background.
A selectivity index (SI) corresponding to the ratio between the cytotoxic and antiplasmodial activities of each compound tested. The values greater than 10 were considered indicative of lack of toxicity, whereas the substances with values below 10 were considered toxic. The SI index was calculated as follow:
SI=LD50 Cell/IC50 P.falciparum
(§1) The coefficients of regression of these curves were calculated using the method of least squares. The LD50 were determined based on the equation of the curve obtained by plotting the % of cellular death versus the concentration of compound (GraphPad Prism Software, version 5.0 for Windows, San Diego, California, USA). The average IC50 and LD50 were compared using ANOVA. Statistical significance was defined at the 5% level (P<0.05).

The subject of series [2] is P. falciparum W2 strain (chloroquine resistant). The experiment in a line: In vitro antiplasmodial activity. Type of series: cell-based, Plasmodium falciparum. Conditions: read-out: IC50 ± SD (drug concentration that reduced parasite viability in 50%).
Source text: P. falciparum continuous culture was maintained as previously described with minor modifications. […] The parasites at early stages were synchronized at ring stage by sorbitol treatment. Initial parasitemia was adjusted to 0.5% with 2% hematocrit in all experiments.
In vitro antiplasmodial activity of the bufadienolides (compounds dehydrobufotenin, marinobufotoxin, marinobufagin and bufalin) was done in 96 well plates. The growth inhibition of intraerythrocytic forms and parasite morphology in culture was assessed by microscopic observation of the Giemsa-stained thin blood films. Ring stage parasites (0.5% parasitemia and 2% hematocrit) were added to each well of 96-well microculture plates. The compounds (dehydrobufotenin, marinobufotoxin, marinobufagin and bufalin) were dissolved in DMSO and diluted to concentrations ranging from 0.78 to 100 μg/mL using complete medium and stored a 4 °C. After incubation at 37 °C for 48 hours, P. falciparum growth inhibition was assessed in Giemsa-stained smears by observing 5,000 erythrocytes per 1 thin blood film in triplicate. The culture medium was replaced with fresh medium with or without test samples/control drugs. […] All experiments were performed in triplicate.
as §1

[3] abbreviates: Plasmodium falciparum, W2, 48 h.

On to `C[N+]1(C)CCc2c[nH]c3ccc(O)c1c23` [Dehydrobufotenine, Dehydrobufotenin], for which, in series [1], the “SI (selectivity index)” value was determined as 12.33 and the “LD50 ± SD (lethal drug concentration that reduced WI-26VA4 cells viability in 50%)” value came to 235.76 ± 4.03 µM. Also, in series [1] (listed as dehydrobufotenin), the “SI (selectivity index)” value is recorded as greater than 10 and the “LD50 ± SD (lethal drug concentration that reduced WI-26VA4 cells viability in 50%)” value worked out at 235.76 µM. For the same molecule, the IC50 in series [2] (setting [3]) turned out to be 19.1 ± 0.2 µM.
`CC12CCC(O)CC1(O)CCC1C2CCC2(C)C(c3ccc(=O)oc3)CC3OC312` (stereo not drawn) [Marinobufagin]: in series [1], the “SI (selectivity index)” value was 0.78 and the “LD50 ± SD (lethal drug concentration that reduced WI-26VA4 cells viability in 50%)” value was determined as 3.04 ± 0.25 µM. Moreover, the “LD50 ± SD (lethal drug concentration that reduced WI-26VA4 cells viability in 50%)” value in series [1] (listed as marinobufagin) amounted to 3.04 µM. Besides, the IC50 in series [2] (setting [3]) was 3.89 ± 0.42 µM.
In the case of `CCN(CC)CCCC(C)Nc1ccnc2cc(Cl)ccc12` (stereo not drawn) [Chloroquine (CQ), Chloroquine, reference compound], the IC50 in series [2] (setting [3]) was found to be 1.04 ± 0.21 µM.
For the molecule `C[C@]12CC[C@H](O)C[C@H]1CC[C@@H]1[C@@H]2CC[C@]2(C)[C@@H](c3ccc(=O)oc3)CC[C@]12O` [Bufalin], in series [1], the “SI (selectivity index)” value came to 7.52 and the “LD50 ± SD (lethal drug concentration that reduced WI-26VA4 cells viability in 50%)” value is 25.9 ± 7.04 µM. Besides, the “LD50 ± SD (lethal drug concentration that reduced WI-26VA4 cells viability in 50%)” value in series [1] (listed as bufalin) was determined as 25.9 µM. Also, in series [2] (P. falciparum W2 (chloroquine-resistant), 48 hours, Giemsa-stained smears, mean and SD of triplicate experiments), the IC50 was determined as 3.44 ± 0.43 µM.
`CC12CCC(OC(=O)CCCCCCC(=O)NC(CCCNC(=N)N)C(=O)O)CC1(O)CCC1C2CCC2(C)C(c3ccc(=O)oc3)CC3OC312` (stereo not drawn) [Marinobufotoxin, 3-(N-suberoylargininyl) marinobufagin]: in series [1], the “SI (selectivity index)” value turned out to be 1.67 and the “LD50 ± SD (lethal drug concentration that reduced WI-26VA4 cells viability in 50%)” value was 8.89 ± 2.66 µM. The “LD50 ± SD (lethal drug concentration that reduced WI-26VA4 cells viability in 50%)” value in series [1] (listed as marinobufotoxin) amounted to 8.89 µM. Also, the IC50 in series [2] (setting [3]) was determined as 5.31 ± 0.25 µM.
